# According to publication PMC5344125 (Nano letters, 2016):
# System: LS174T secreted proteases
# Experiment: Secreted protease activity assay with conditioned supernatant
# Type: biochemical, human
# Conditions: fluorescently quenched substrates, MMP inhibitor added
smiles,measurement,value
CNC(=O)[C@@H](NC(=O)[C@H](CC(C)C)[C@H](O)C(=O)NO)C(C)(C)C [Marimastat],in vitro proteolysis of substrates in the presence of Marimastat,abrogated
